# Measurements taken from ChEMBL document CHEMBL1127654, “An epimer of 5'-noraristeromycin and its antiviral properties” (1994).
# Assays:
# MDCK [1] = test: Minimal inhibitory concentration (MIC) required to reduce Influenza B in MDCK cells; assay type: functional; settings: Canis lupus familiaris
# HEL [2] = test: Minimal inhibitory concentration (MIC) required to reduce VZV (varicella zoster virus) (OKA) in HEL cells; assay type: functional; settings: Homo sapiens
# HeLa [3] = test: Minimal inhibitory concentration (MIC) required to reduce coxsackie B4 in HeLa cells; assay type: functional; settings: Homo sapiens
# HEL [4] = test: Minimal inhibitory concentration (MIC) required to reduce CMV (Davis) in HEL cells; assay type: functional; settings: Homo sapiens
# Vero [5] = test: Minimal inhibitory concentration (MIC) required to reduce Tacaribe virus in Vero cells; assay type: functional; settings: Chlorocebus sabaeus
# Vero [6] = test: Minimal inhibitory concentration (MIC) required to reduce Sindbis in virus in Vero cells; assay type: functional; settings: Chlorocebus sabaeus
# E6SM [7] = test: cells; settings: Homo sapiens
# E6SM [8] = test: cells; settings: Homo sapiens; remark: listed apart in the source
# Vero [9] = test: Minimal inhibitory concentration (MIC) required to reduce forest virus in Vero cells; assay type: functional; settings: Chlorocebus sabaeus
# E6SM [10] = test: Minimal inhibitory concentration (MIC) required to reduce TK(Thymidine kinase)-HSV-1 (B2006) cytopathicity in E6SM cells; assay type: functional; settings: Homo sapiens
# [11] = test system: Respiratory syncytial virus; test: Minimal inhibitory concentration (MIC) required to reduce RSV (long) in HeLa cells; assay type: functional; settings: human respiratory syncytial virus
# HEL [12] = test: Minimal inhibitory concentration (MIC) required to reduce CMV (cytomegalo virus) (AD-169) in HEL cells; assay type: functional, Homo sapiens
# HeLa [13] = test: Minimal inhibitory concentration (MIC) required to reduce VSV in HeLa cells; assay type: functional; settings: Homo sapiens
# MT4 [14] = test: Minimal inhibitory concentration (MIC) required to reduce HIV(human immunodeficiency virus)-1 in MT-4 cells; assay type: functional
# E6SM [15] = test: Minimal inhibitory concentration (MIC) required to reduce HSV(herpes simplex virus)-2 cytopathicity E6SM cells; assay type: functional; settings: Homo sapiens
# E6SM [16] = test: Minimal inhibitory concentration (MIC) required to reduce HSV(herpes simplex virus)-1 (KOS) cytopathicity in E6SM cells; assay type: functional; settings: Homo sapiens
# HEL [17] = test: Minimal inhibitory concentration (MIC) required to reduce VZV (YS) in HEL cells; assay type: functional; settings: Homo sapiens
# E6SM [18] = test: Minimal inhibitory concentration (MIC) required to reduce TK-HSV-1 (VMW 1837) cytopathicity in E6SM cells; assay type: functional; settings: Homo sapiens
# Vero [19] = test: Minimal inhibitory concentration (MIC) required to reduce Reovirus-1 in Vero cells; assay type: functional; settings: Chlorocebus sabaeus
# HeLa [20] = test: Minimal inhibitory concentration (MIC) required to reduce Polio-1 in HeLa cells; assay type: functional; settings: Homo sapiens
# MDCK [21] = test: Minimal inhibitory concentration (MIC) required to reduce Influenza A virus in MDCK cells; assay type: functional; settings: Canis lupus familiaris
# Vero [22] = test: Minimal inhibitory concentration (MIC) required to reduce Parainfluenza-3 virus in Vero cells; assay type: functional; settings: Chlorocebus sabaeus
# MT4 [23] = test: Minimal inhibitory concentration (MIC) required to reduce HIV-2 in MT-4 cells; assay type: functional; settings: Homo sapiens
# Vero [24] = test: Minimal inhibitory concentration (MIC) required to reduce Junin virus in Vero cells; assay type: functional; settings: Chlorocebus sabaeus
# MDCK [25] = test: Minimal inhibitory concentration (MIC) required to reduce Influenza B virus in MDCK cells; assay type: functional; settings: Canis lupus familiaris
Structure (SMILES),MIC50 (HEL [2]) [µg/mL],MIC50 (HeLa [3]) [µg/mL],MIC50 (Vero [5]) [µg/mL],MIC50 (Vero [6]) [µg/mL],MIC50 (E6SM [7]) [µg/mL],MIC50 (E6SM [8]) [µg/mL],MIC50 (Vero [9]) [µg/mL],MIC50 (E6SM [10]) [µg/mL],MIC50 [11] [µg/mL],"MIC50 (HEL [12]; Homo sapiens, read-out: MIC50) [µg/mL]",MIC50 (HeLa [13]) [µg/mL],MIC50 (E6SM [15]) [µg/mL],MIC50 (E6SM [16]) [µg/mL],MIC50 (HEL [17]) [µg/mL],MIC50 (E6SM [18]) [µg/mL],MIC50 (Vero [19]) [µg/mL],MIC50 (HeLa [20]) [µg/mL],MIC50 (MDCK [21]) [µg/mL],MIC50 (Vero [22]) [µg/mL],MIC50 (Vero [24]) [µg/mL],further results
Nc1ncnc2c1ncn2[C@@H]1C[C@@H](O)[C@@H](O)[C@H]1O,6,> 400,27,> 200,0.1,0.2,> 200,200,100,5,> 0.2,300,> 300,1,200,0.3,> 400,> 200,0.04,30,MIC50 (MDCK [1]): > 200 µg/mL; MIC50 (HEL [4]): 3 µg/mL; MIC50 (MT4 [14]): > 0.8 µg/mL; MIC50 (MT4 [23]): > 0.8 µg/mL
Nc1nccc2c1ncn2[C@@H]1C[C@H](CO)[C@@H](O)[C@H]1O [3-DEAZAARISTEROMYCIN A],> 40,> 400,7,4,1,1,> 400,> 400,100,> 7,> 7,> 400,> 400,> 40,> 400,2,> 400,> 100,> 1,7,MIC50 (HEL [12]): 7 µg/mL; MIC50 (MDCK [25]): > 30 µg/mL
Nc1ncnc2c1ncn2[C@@H]1C=C(CO)[C@@H](O)[C@H]1O [NEOPLANOCIN A],6,> 40,1,2,0.2,2,7,20,> 1,0.6,2,> 100,70,1,70,0.7,> 40,1,0.2,1,MIC50 (HEL [12]): 0.4 µg/mL; MIC50 (MDCK [25]): > 3 µg/mL
